Data reported in patent EP4534147A1, “STING ANTAGONIST COMPOUNDS” (Sulis Therapeutics ApS, priority 2023, dated 2025).

Assays:
[1] = target: T1, C-terminal domain (CTD) of human STING (Homo sapiens, UniProt Q86WV6); test: STING binding FP assay I (fluorescence polarization competition binding); parameters: recombinant human STING protein (155-379); settings: recombinant human STING protein (155-379), 35 nM STING, 4 nM fluorescein-labelled STING ligand (Probe 1), 20 min at room temperature
Method: The interaction between molecules and the C-terminal domain (CTD) of human STING was evaluated using a competition binding assay. In this assay, recombinant human STING protein (155-379) and a STING binding fluorescent probe were employed. Upon binding of the probe to STING, the rotation of the fluorescent probe is slowed due to the larger molecular size of the protein-bound complex. As a result, emitted light retains its plane of polarization, leading to an increase in fluorescence polarization. Molecules competing for the probe binding site displace the probe, which leads to rapid randomization of the polarization plane of the emitted light and a subsequent decrease in measured fluorescence polarization signal. Change in polarization was measured, allowing a comparative evaluation of the binding affinities of different compounds to the target protein.
The assay was performed in 96-well plates (ThermoFisher, cat.# 237108) containing 100 µl : 10 µL test compound in 10% DMSO and buffer A (150 mM NaCl, 50 mM HEPES pH 7.5, 1 mM DTT) + 90 µL prepared master mix solution of: 4 nM fluorescein-labelled STING ligand (Probe 1; synthesis described above) in buffer A + 0.055% Tween-20 (v/v) and 35 nM STING in buffer A. Post mixing, plates were agitated at 600 rpm and incubated for 20 min at room temperature. Subsequent measurements of the fluorescence polarization signal were made on a BioTek Synergy-H1 plate reader, using a polarization filter; excitation: 485/20 nm, emission: 528/20 nm) with a gain-setting of 75. IC50 values were determined using a standard non-linear regression four-parameter curve fit in Graphpad Prism.
Target sequence in this assay (Q86WV6 155-379): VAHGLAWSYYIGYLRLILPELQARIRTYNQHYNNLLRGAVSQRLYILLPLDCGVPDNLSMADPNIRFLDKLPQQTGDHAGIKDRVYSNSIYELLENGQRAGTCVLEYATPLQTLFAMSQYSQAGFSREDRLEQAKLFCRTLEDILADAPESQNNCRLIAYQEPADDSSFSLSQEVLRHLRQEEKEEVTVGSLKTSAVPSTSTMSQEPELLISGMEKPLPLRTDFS

[2] = target: T1, C-terminal domain (CTD) of human STING; test: STING binding TR-FRET assay (CisBio Human STING WT Binding Kit); parameters: purchased CisBio 64BDSTGPEG; settings: recombinant human STING with His-tag, D2-labeled active site probe, 60 min at room temperature
Method: STING binding can be determined by a time-resolved FRET assay. For instance, a STING protein having a His-tag can be used. A D2-labeled active site probe can be used to accept 620 nm emission from Anti-HIS-Tb-STING. Increased fluorescence is measured at 665 nm. Molecules that compete for the probe binding site will result in a lower 665 nm signal. The assay can be performed in low-volume white 96-well plates containing 5 µL compounds in an appropriate diluent buffer. Following 60 minutes incubation at room temperature in the dark, fluorescence emission at 665 nm is measured following 330 nm xenon flash excitation. pIC50 values can be determined using a standard four parameter curve fit.
The affinity of molecules to the C-terminal domain (CTD) of human STING was determined using a commercial Human STING WT Binding Kit (CisBio, cat.# 64BDSTGPEG). In this time-resolved FRET assay, a recombinant human STING protein construct with a His-tag was employed. When bound to STING, a D2-labeled active site probe accepts the 620 nm emission from Anti-HIS-Tb-STING and an increase in fluorescence is measured at 665 nm. Molecules that compete for the probe binding site will result in a low 665 nm signal. The assay was run in CisBio low-volume white 96-well plates (catalog# 66PL96005) containing 5 µL compounds in Diluent Buffer (supplied with the CisBio kit). A solution of 1xSTING, 1x Anti-HIS-Tb and 1X D2-probe in TB detection buffer (kit supplied) was added to the plate. Plates were centrifuged for 2 min at 500 rpm, incubated for 60 min at room temperature in the dark, and then fluorescence emission at 665 nm following 330 nm xenon flash excitation on an BioTek synergy H1 multimode reader (Agilent) was measured. The plC50 values were determined using a standard four parameter curve fit in GraphPad Prism.
Target sequence in this assay (Q86WV6 135-379 limits assumed): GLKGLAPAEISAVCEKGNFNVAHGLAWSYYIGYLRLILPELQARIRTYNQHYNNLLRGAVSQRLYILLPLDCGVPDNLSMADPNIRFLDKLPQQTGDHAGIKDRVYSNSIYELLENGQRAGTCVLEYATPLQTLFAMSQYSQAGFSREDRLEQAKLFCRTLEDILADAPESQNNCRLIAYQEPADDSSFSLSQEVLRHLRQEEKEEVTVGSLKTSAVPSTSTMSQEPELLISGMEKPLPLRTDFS

STING = target: T2, STING (Homo sapiens, UniProt Q86WV6); test: Human FB STING antagonist assay (IFN-a/b release); type: cell-based; settings: Human skin fibroblasts, 2h pre-treatment, 300 nM GSK STING agonist (CAS number: 2138299-34-8) for 20 h, release of IFN-a/b by HEK-Blue IFN-α/β bioassay
T2 construct: endogenous in cells; host or cells: human skin fibroblasts
T2 sequence (Q86WV6 whole entry): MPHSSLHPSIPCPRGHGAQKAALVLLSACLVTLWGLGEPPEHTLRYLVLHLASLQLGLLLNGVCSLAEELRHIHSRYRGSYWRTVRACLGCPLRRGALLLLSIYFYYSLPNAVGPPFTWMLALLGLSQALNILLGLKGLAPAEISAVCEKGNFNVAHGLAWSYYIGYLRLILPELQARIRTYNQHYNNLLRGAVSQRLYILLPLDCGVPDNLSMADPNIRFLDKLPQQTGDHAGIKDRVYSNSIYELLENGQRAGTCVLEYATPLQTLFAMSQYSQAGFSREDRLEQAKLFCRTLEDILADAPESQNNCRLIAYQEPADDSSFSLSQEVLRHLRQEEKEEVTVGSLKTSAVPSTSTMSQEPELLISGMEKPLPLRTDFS
Method: STING antagonist activity can be determined by a human fibroblast antagonist assay. For this, human skin fibroblasts are pre-treated for 2h with a serial dilution of the compound, and are then stimulated for 20 hours with 300 nM STING agonist (e.g. from GSK, CAS number: 2138299-34-8). Supernatants are then harvested and assessed for IFN-a/b release, which indicates STING activation. IFN-a/b concentration in the supernatant is determined, e.g. using an IFN-α/β bioassay. IC50 values are calculated using a non-linear regression fitting, variable slope (4 parameters).
Human skin fibroblasts were pre-treated for 2h with a serial dilution of test compound followed by stimulation with mock or 300 nM GSK STING agonist (CAS number: 2138299-34-8). Supernatants were harvested after 20 h of STING agonist stimulation. Release of IFN-a/b was determined using HEK-Blue IFN-α/β bioassay (Invivogen). Cellular viability was assessed using Alamar Blue HS assay. IC50 values were estimated using a non-linear regression fitting, variable slope (4 parameters) in GraphPad Prism 9.3.1.

SMILES	IC50 [1] [nM]	IC50 [2] [nM]	IC50 (STING) [nM]
CCn1nc(C)cc1C(=O)N=c1n(C)c2cc(C(N)=O)ccc2n1CCC(CCn1c(=NC(=O)c2cc(C)nn2CC)n(C)c2cc(C(N)=O)ccc21)OCC(=O)O (stereo not drawn) [Example 3, (3-{5-Carbamoyl-2-[(1-ethyl-3-methyl-5-pyrazolyl)carbonylimino]-3-methyl-2,3-dihydro-1H-1,3-benzimidazol-1-yl}-1-(2-{5-carbamoyl-2-[(1-ethyl-3-methyl-5-pyrazolyl)carbonylimino]-3-methyl-2,3-dihydro-1H-1,3-benzimidazol-1-yl}ethyl)propoxy)acetic acid]	< 30	0.452	–
CCn1nc(C)cc1C(=O)N=c1n(C)c2cc(C(N)=O)ccc2n1CCC(CCn1c(=NC(=O)c2cc(C)nn2CC)n(C)c2cc(C(N)=O)ccc21)OCC(=O)NC(C)C (stereo not drawn) [Example 5, 1-{3-[(N-lsopropylcarbamoyl)methoxy]-5-{5-carbamoyl-2-[(1-ethyl-3-methyl-5-pyrazolyl)carbonylimino]-3-methyl-2,3-dihydro-1H-1,3-benzimidazol-1-yl}pentyl}-2-[(1-ethyl-3-methyl-5-pyrazolyl)carbonylimino]-3-methyl-2,3-dihydro-1H-1,3-benzimidazole-5-carboxamide]	< 30	0.38	–
CCn1nc(C)cc1C(=O)N=c1n(C)c2cc(C(N)=O)ccc2n1CCC(CCn1c(=NC(=O)c2cc(C)nn2CC)n(C)c2cc(C(N)=O)ccc21)OCC(=O)N1CCc2cc(OC)ccc2C1 (stereo not drawn) [Example 9, 1-(5-{5-Carbamoyl-2-[(1-ethyl-3-methyl-5-pyrazolyl)carbonylimino]-3-methyl-2,3-dihydro-1H-1,3-benzimidazol-1-yl}-3-[2-(6-methoxy-1,2,3,4-tetrahydro-2-isoquinolyl)-2-oxoethoxy]pentyl)-2-[(1-ethyl-3-methyl-5-pyrazolyl)carbonylimino]-3-methyl-2,3-dihydro-1H-1 ,3-benzimidazole-5-carboxamide]	< 30	0.665	13100
CCn1nc(C)cc1C(=O)N=c1n(C)c2cc(C(N)=O)ccc2n1CCC(CCn1c(=NC(=O)c2cc(C)nn2CC)n(C)c2cc(C(N)=O)ccc21)OCC(=O)N1CCOCC1 (stereo not drawn) [Example 7, 1-(5-{5-Carbamoyl-2-[(1-ethyl-3-methyl-5-pyrazolyl)carbonylimino]-3-methyl-2,3-dihydro-1H-1,3-benzimidazol-1-yl}-3-(2-morpholino-2-oxoethoxy)pentyl)-2-[(1-ethyl-3-methyl-5-pyrazolyl)carbonylimino]-3-methyl-2,3-dihydro-1H-1,3-benzimidazole-5-carboxamide]	< 30	0.267	3500
CCOC(=O)COC(CCn1c(=NC(=O)c2cc(C)nn2CC)n(C)c2cc(C(N)=O)ccc21)CCn1c(=NC(=O)c2cc(C)nn2CC)n(C)c2cc(C(N)=O)ccc21 (stereo not drawn) [Example 2, Ethyl (3-{5-carbamoyl-2-[(1-ethyl-3-methyl-5-pyrazolyl)carbonylimino]-3-methyl-2,3-dihydro-1H-1,3-benzimidazol-1-yl}-1-(2-{5-carbamoyl-2-[(1-ethyl-3-methyl-5-pyrazolyl)carbonylimino]-3-methyl-2,3-dihydro-1H-1,3-benzimidazol-1-yl}ethyl)propoxy)acetate]	< 30	–	2500
CCn1nc(C)cc1C(=O)N=c1n(C)c2cc(C(N)=O)ccc2n1CCC(CCn1c(=NC(=O)c2cc(C)nn2CC)n(C)c2cc(C(N)=O)ccc21)OCC(=O)Nc1ccccc1 (stereo not drawn) [Example 6, 1-{3-[(N-Phenylcarbamoyl)methoxy]-5-{5-carbamoyl-2-[(1-ethyl-3-methyl-5-pyrazolyl)carbonylimino]-3-methyl-2,3-dihydro-1H-1,3-benzimidazol-1-yl}pentyl}-2-[(1-ethyl-3-methyl-5-pyrazolyl)carbonylimino]-3-methyl-2,3-dihydro-1H-1,3-benzimidazole-5-carboxamide]	< 30	0.6	7600
